The values below are quoted from earlier work in patent US5348946A, “Heteroanthracycline antitumor analogs” (Biochem Immunosystems, Inc., priority 1991, dated 1994).

Structures are written as SMILES.

For the data set the following is noted: compared with daunorubicin and doxorubicin; cited from earlier work.
`CC(=O)[C@]1(O)Cc2c(c(O)c3oc4ccccc4c(=O)c3c2O)[C@@H](O[C@H]2C[C@H](N)[C@H](O)[C@H](C)O2)C1` [Compound 4]: the antileukemic activity entry was “antileukemic activity, but lower than that of the parent antibiotics daunorubicin and doxorubicin”. Regarding `CC(=O)[C@]1(O)Cc2c(c(O)c3oc4ccccc4c(=O)c3c2O)[C@@H](O[C@H]2C[C@H](NC(=O)C(F)(F)F)[C@H](O)[C@H](C)O2)C1` [Compound 5], the antileukemic activity entry is “antileukemic activity, but lower than that of the parent antibiotics daunorubicin and doxorubicin”. `CC(=O)[C@@H]1Cc2c(c(O)c3oc4ccccc4c(=O)c3c2O)[C@@H](O[C@H]2C[C@H](N)[C@H](O)[C@H](C)O2)C1` [Compound 3]: the antileukemic activity result was “antileukemic activity, but lower than that of the parent antibiotics daunorubicin and doxorubicin”.
